Usually CL/F stands for clearance divided by bioavailability, as obtained after extravascular dosing. The term Cmax denotes the maximum level reached in the sampled fluid or tissue. A word on the Tmax: it is the time at which the peak concentration occurs. As a reminder, the AUC(0-t) is the area under the concentration-time curve up to a stated or last time point. The half-life is the time in which the quantity being followed falls by half.

Counter-ions that a name gives are not always drawn. Marks after values point to notes of the source that are not given here.

Results on seven compounds are retold here after publication PMC4703101 (Chemical research in toxicology, 2015).

Data set [1] has as its system Liver microsomal P450. Briefly: Liver microsomal P450 oxidation. The format is in vitro ADME. The note with it: Human liver microsome (H112); substrate 100 μM (AαC, PhIP, MeIQx), 10 μM (MROD). On the technique in general: Microsomes from liver hold many membrane-bound enzymes, among them those of drug oxidation.
Data set [2] concerns Liver microsomal P450. Briefly: Liver microsomal P450 oxidation. The class given is in vitro ADME, mouse. Particulars: for P450 Oxidation: substrate 100 μM (AαC, PhIP, MeIQx), 10 μM (MROD), mean and SD, n ≥3, N.D. = not detected; for levels of metabolism, fold greater than AαC: 100 µM substrate.
Data set [3] is described as follows: Pharmacokinetics of plasma AαC and its metabolites after oral gavage of AαC. The note with it: for AUC 0-24 h in plasma, fold greater in LCN mice than in WT mice / Cmax in plasma, fold greater in LCN mice than in WT mice / clearance rate, fold lower in LCN mice than in WT mice: for AαC also vs IECN; for AUC0-24h / CL/F / Cmax / Tmax / t1/2 / AUC0-6h / AUC(0-t) / half-life: plasma. The class given is in vivo, mice (C57BL/6 background; WT, LCN, IECN).

For data set [4], the system named is DNA. The note with it: cited from earlier work.
The subject of data set [5] is DNA. Particulars: liver, kidney, colon, and mammary gland of female Cyp1a2-null mice; cited from earlier work.
The next data set deals with P450 1A2. The note with it: human hepatocytes in primary culture pretreated with furafylline; cited from earlier work.
For a further data set, the system named is Aldehyde Oxidase. Put plainly: Aldehyde oxidase assay, liver cytosol. Particulars: WT and LCN liver cytosol.
In data set [6] the test system is Flavin monooxygenase (FMO). Briefly: Microsomal flavin monooxygenase. The note with it: WT and LCN liver microsomes.
The target of a further data set is Xanthine Dehydrogenase (Mus musculus, UniProt Q00519). Put plainly: Xanthine dehydrogenase assay, liver cytosol. The format is in vitro ADME. Particulars: WT and LCN liver cytosol.
Sequence of Xanthine Dehydrogenase (Q00519 whole entry): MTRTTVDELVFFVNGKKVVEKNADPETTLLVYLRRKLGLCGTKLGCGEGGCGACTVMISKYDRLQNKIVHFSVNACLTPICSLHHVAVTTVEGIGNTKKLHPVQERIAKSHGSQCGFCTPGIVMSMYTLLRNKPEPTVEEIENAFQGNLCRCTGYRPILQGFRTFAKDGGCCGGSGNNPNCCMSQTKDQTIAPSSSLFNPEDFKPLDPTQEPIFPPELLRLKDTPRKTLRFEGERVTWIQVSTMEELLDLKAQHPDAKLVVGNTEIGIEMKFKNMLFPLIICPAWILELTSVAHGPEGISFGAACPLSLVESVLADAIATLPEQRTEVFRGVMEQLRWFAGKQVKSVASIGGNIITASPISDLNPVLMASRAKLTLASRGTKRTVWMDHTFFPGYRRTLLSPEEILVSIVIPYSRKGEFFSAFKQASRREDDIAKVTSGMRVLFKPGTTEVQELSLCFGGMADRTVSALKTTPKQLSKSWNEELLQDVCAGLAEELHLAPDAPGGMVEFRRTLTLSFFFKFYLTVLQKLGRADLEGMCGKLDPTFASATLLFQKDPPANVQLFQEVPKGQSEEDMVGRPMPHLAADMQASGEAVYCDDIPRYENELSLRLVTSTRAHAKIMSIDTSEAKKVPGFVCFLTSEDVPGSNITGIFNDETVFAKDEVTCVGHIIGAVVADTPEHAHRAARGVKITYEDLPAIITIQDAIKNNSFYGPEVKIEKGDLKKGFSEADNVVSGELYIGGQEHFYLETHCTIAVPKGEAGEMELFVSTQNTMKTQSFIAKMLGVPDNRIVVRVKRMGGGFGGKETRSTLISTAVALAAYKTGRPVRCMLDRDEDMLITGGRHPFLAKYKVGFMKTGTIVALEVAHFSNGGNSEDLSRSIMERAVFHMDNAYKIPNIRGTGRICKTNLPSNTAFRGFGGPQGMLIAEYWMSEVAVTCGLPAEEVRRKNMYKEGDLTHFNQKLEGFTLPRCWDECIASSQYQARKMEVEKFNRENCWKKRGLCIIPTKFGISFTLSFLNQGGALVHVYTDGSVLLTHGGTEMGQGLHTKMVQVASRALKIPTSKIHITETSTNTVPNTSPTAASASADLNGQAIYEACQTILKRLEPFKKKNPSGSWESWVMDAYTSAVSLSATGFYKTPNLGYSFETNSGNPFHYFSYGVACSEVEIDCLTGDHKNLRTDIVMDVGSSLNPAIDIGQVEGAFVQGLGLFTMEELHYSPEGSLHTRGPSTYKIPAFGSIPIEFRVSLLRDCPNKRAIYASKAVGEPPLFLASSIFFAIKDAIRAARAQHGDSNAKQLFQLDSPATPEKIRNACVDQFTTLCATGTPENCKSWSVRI
Setting [7] is: IECN mice, AαC 13.6 mg/kg oral gavage, mean ± S.D. n=5.
[8] abbreviates: LCN mice, AαC 1.36 mg/kg oral gavage, mean ± S.D. n=5.
[9] abbreviates: LCN mice, AαC 13.6 mg/kg oral gavage, mean ± S.D. n=5.
The mark [10] stands for this setting: WT mice, AαC 1.36 mg/kg oral gavage, mean ± S.D. n=5.
Setting [11] is: WT mice, AαC 13.6 mg/kg oral gavage, mean ± S.D. n=5.

For the compound `Cc1cnc2ccc3c(nc(N)n3C)c2n1` [MeIQx, 2-amino-3,8-dimethylimidaz[4,5-f]quinoxaline], the entries for the “P450 Oxidation” value in the data set with Liver microsomal P450 [1], with Liver microsomal P450 [2] (LCN mouse liver microsomes) and in the data set with Liver microsomal P450 [2] (WT mouse liver microsomes) were 1010 ± 155 pmol/min/mg protein, 67 ± 44 pmol/min/mg protein and 404 ± 155 pmol/min/mg protein, respectively. The “levels of metabolism, fold greater than AαC” value with Liver microsomal P450 [2] (WT mouse liver microsomes) is reported as 3 to 4 fold.
For `Nc1nc2[nH]c3ccccc3c2cc1OS(=O)(=O)O` [AαC-3-OSO3H, 2-amino-9H-pyrido[2,3-b]indol-3-yl sulfate], the “Cmax, fold higher in LCN mice than in WT mice” value in data set [3] (AαC 1.36 mg/kg oral gavage) is approximately 2 fold. Further, the “AUC 0-24 h in plasma, fold greater in LCN mice than in WT mice” value (“AUC 0-24 h in plasma, fold greater” below) in [3] (AαC 13.6 mg/kg oral gavage) is on record as “about 1.6 fold”. In data set [3] (setting [7]), the AUC0-24h is 5310 ± 1650 ng·h/mL, the CL/F was 77.0 ± 20.3^c ml/h, the highest concentration (Cmax) turned out to be 913 ± 248 ng/mL and the time of peak concentration (Tmax) came out at 1.8 ± 1.2 h. Besides, the t1/2 in [3] (setting [7]) was found to be 2.8 ± 0.2 h. Also, in data set [3] (setting [8]), the AUC0-6h is reported as 438 ± 118^a h*ng/ml, the CL/F was 76.0 ± 39.2^b ml/h, the Cmax is on record as 177 ± 73.0^a ng/ml and the time of peak concentration (Tmax) is 1.0 ± 0 h. In addition, the t1/2 in [3] (setting [8]) amounted to 2.5 ± 1.7 h. For the same compound, in data set [3] (setting [9]), the AUC0-24h is reported as 6140 ± 1330^b h*ng/ml, the apparent clearance CL/F was 64.3 ± 13.6^a ml/h, the Cmax stood at 586 ± 128 ng/mL and the time to peak (Tmax) was 3.5 ± 2.3 h. In addition, in data set [3] (setting [9]), the t1/2 is recorded as 3.1 ± 0.2 h. Besides, in data set [3] (setting [10]), the AUC0-6h worked out at 165.6 ± 47.6 ng·h/mL, the apparent clearance CL/F turned out to be 180 ± 140 mL/h, the Cmax worked out at 74.6 ± 31.5 ng/mL and the time of peak concentration (Tmax) was 1.0 ± 0 h. Also, in data set [3] (setting [10]), the t1/2 was determined as 5.9 ± 6.1 h. In addition, in data set [3] (setting [11]), the AUC0-24h worked out at 3700 ± 911 ng·h/mL, the apparent clearance (CL/F) turned out to be 107 ± 27.9 mL/h, the Cmax is 669 ± 251 ng/mL and the Tmax turned out to be 1.8 ± 1.3 h. Besides, the t1/2 in [3] (setting [11]) is reported as 3.4 ± 1.2 h.
Regarding `COc1ccc2nc3ccc(=O)cc-3oc2c1` [MROD, methoxyresorufin], the “MROD activity, fold decrease in LCN liver microsomes compared to WT microsomes” value in the data set with Liver microsomal P450 [2] is listed as “greater than 10 fold”.
As to `Cn1c(N)nc2ncc(-c3ccccc3)cc21` [PhIP, 2-amino-1-methyl-6-phenylimidazo[4,5-b]pyridine], the “P450 Oxidation” value in the data set on Liver microsomal P450 [1] was determined as 1440 ± 280 pmol/min/mg protein. The “PhIP-DNA adduct levels in liver of RCN compared to WT mice” value in the data set with DNA [4] was “unchanged”. Besides, the “levels of DNA adducts in Cyp1a2-null vs WT mice” value in the data set on DNA [5] is on record as “ten-fold lower”. In addition, in the data set with Liver microsomal P450 [2] (WT mouse liver microsomes), the “levels of metabolism, fold greater than AαC” value was in the range of 3 to 4 fold and the “P450 Oxidation” value came out at 362 ± 120 pmol/min/mg protein.
For `Cc1nc2c([nH]1)c(=O)n(C)c(=O)n2Cc1ccco1` [furafylline], the “inhibition of dG-C8-AαC adduct formation” value with P450 1A2 is recorded as “only partially inhibited”.
`Nc1ccc2c(n1)[nH]c1ccccc12` [AαC, 2-Amino-9H-pyrido[2,3-b]indole]: the entries for the “P450 Oxidation” value in the data set with Liver microsomal P450 [1] and in the data set on Liver microsomal P450 [2] (WT mouse liver microsomes) were 820 ± 60 pmol/min/mg protein and 103 ± 33 pmol/min/mg protein, respectively. Also, the “AUC 0-24 h in plasma, fold greater” value in data set [3] (AαC 13.6 mg/kg oral gavage) is “about 20 fold”. Moreover, in data set [3] (AαC 13.6 mg/kg oral gavage), the “Cmax in plasma, fold greater in LCN mice than in WT mice” value turned out to be 10 fold. Moreover, in [3] (AαC 13.6 mg/kg oral gavage), the “clearance rate, fold lower in LCN mice than in WT mice” value was 20 fold. Besides, the CL/F in [3] (setting [7]) was 5920 ± 1530 mL/h; in data set [3] (setting [8]) it was 884 ± 378^a ml/h; in data set [3] (setting [9]), 335 ± 146^b ml/h; in [3] (setting [10]) it was 15300 ± 5690 mL/h; in data set [3] (setting [11]) it was 6900 ± 1850 mL/h. Moreover, the AUC(0-t) amounted to 45.2 ± 16.9 ng·h/mL in data set [3] (male, C57BL/6, mouse, po, 1.36 mg/kg, AUC0-6h, LCN mice, AαC 1.36 mg/kg oral gavage, mean ± S.D. n=5); 2.5 ± 1.3 ng·h/mL in [3] (male, C57BL/6, mouse, po, 1.36 mg/kg, AUC0-6h, WT mice, AαC 1.36 mg/kg oral gavage, mean ± S.D. n=5); 68.4 ± 18.2 ng·h/mL in data set [3] (male, C57BL/6, mouse, po, 13.6 mg/kg, AUC0-24h, IECN mice, AαC 13.6 mg/kg oral gavage, mean ± S.D. n=5); 1360 ± 595 ng·h/mL in [3] (male, C57BL/6, mouse, po, 13.6 mg/kg, AUC0-24h, LCN mice, AαC 13.6 mg/kg oral gavage, mean ± S.D. n=5); 57.6 ± 14.2 ng·h/mL in data set [3] (male, C57BL/6, mouse, po, 13.6 mg/kg, AUC0-24h, WT mice, AαC 13.6 mg/kg oral gavage, mean ± S.D. n=5). For the same compound, the highest concentration (Cmax) in [3] (male, C57BL/6, mouse, po, 1.36 mg/kg, Cmax, LCN mice, AαC 1.36 mg/kg oral gavage, mean ± S.D. n=5) was found to be 21.8 ± 13.6 ng/mL; in [3] (male, C57BL/6, mouse, po, 1.36 mg/kg, Cmax, WT mice, AαC 1.36 mg/kg oral gavage, mean ± S.D. n=5), 1.4 ± 0.9 ng/mL; in data set [3] (male, C57BL/6, mouse, po, 13.6 mg/kg, Cmax, IECN mice, AαC 13.6 mg/kg oral gavage, mean ± S.D. n=5), 25.1 ± 12.4 ng/mL; in data set [3] (male, C57BL/6, mouse, po, 13.6 mg/kg, Cmax, LCN mice, AαC 13.6 mg/kg oral gavage, mean ± S.D. n=5), 272 ± 85.9 ng/mL; in data set [3] (male, C57BL/6, mouse, po, 13.6 mg/kg, Cmax, WT mice, AαC 13.6 mg/kg oral gavage, mean ± S.D. n=5) it was 26.5 ± 8.6 ng/mL. Further, the half-life in data set [3] (male, C57BL/6, mouse, po, 1.36 mg/kg, t1/2, LCN mice, AαC 1.36 mg/kg oral gavage, mean ± S.D. n=5) was 1.4 ± 0.5 h; in [3] (male, C57BL/6, mouse, po, 1.36 mg/kg, t1/2, WT mice, AαC 1.36 mg/kg oral gavage, mean ± S.D. n=5) it was 1.7 ± 0.9 h; in data set [3] (male, C57BL/6, mouse, po, 13.6 mg/kg, t1/2, IECN mice, AαC 13.6 mg/kg oral gavage, mean ± S.D. n=5) it was 3.9 ± 2.2 h; in data set [3] (male, C57BL/6, mouse, po, 13.6 mg/kg, t1/2, LCN mice, AαC 13.6 mg/kg oral gavage, mean ± S.D. n=5), 2.8 ± 0.3 h; in data set [3] (male, C57BL/6, mouse, po, 13.6 mg/kg, t1/2, WT mice, AαC 13.6 mg/kg oral gavage, mean ± S.D. n=5) it was 3 ± 2.4 h. Also, in data set [3] (male, C57BL/6, mouse, po, 13.6 mg/kg), the time to peak (Tmax) turned out to be 1 h. The “AαC metabolism, if present (limit of detection by HPLC-UV)” value (in the data set with Aldehyde Oxidase; in data set [6]; on Xanthine Dehydrogenase) was less than 50 pmol/min/mg protein each time.
As to `O=C(O)[C@H]1O[C@@H](Nc2ccc3c(n2)[nH]c2ccccc23)[C@H](O)[C@@H](O)[C@@H]1O` [AαC-N^2-Glu, N^2-(β-1-glucosidurony1)-2-amino-9H-pyrido[2,3-b]indole], the “Cmax and AUC0-24h, fold higher in LCN than in WT mice” value in data set [3] (AαC 13.6 mg/kg by gavage, plasma (abstract)) was 4-24 fold. In addition, in [3] (AαC 13.6 mg/kg oral gavage), the “AUC 0-24 h in plasma, fold greater” value is listed as ~ 6 fold; the “Cmax in plasma, fold greater in LCN mice than in WT mice” value stood at 4.5 fold; the “clearance rate, fold lower in LCN mice than in WT mice” value is reported as 6.6 fold. In data set [3] (setting [7]), the AUC0-24h turned out to be 150 ± 30.0 ng·h/mL, the CL/F was 3180 ± 1031 mL/h, the Cmax is 42.4 ± 15.4 ng/mL and the Tmax worked out at 1.8 ± 1.2 h. Further, the t1/2 in data set [3] (setting [7]) is listed as 2.5 ± 2.2 h. Besides, in data set [3] (setting [8]), the AUC0-6h is on record as 195 ±78.7^a h*ng/ml, the CL/F is recorded as 207 ± 100^a ml/h, the Cmax was 74.3 ± 48.6^a ng/ml and the t1/2 stood at 1.5 ± 0.8 h. In data set [3] (setting [9]), the AUC0-24h is 803 ± 241^a h*ng/ml, the CL/F is reported as 543 ± 148^a ml/h, the Cmax is given as 186 ± 85.0^b ng/ml and the Tmax was determined as 1.0 ± 0 h. Besides, the t1/2 in [3] (setting [9]) came to 2.1 ± 0.5 h. In data set [3] (setting [10]), the AUC0-6h was 40.5 ± 16.6 ng·h/mL, the CL/F worked out at 985 ± 372 mL/h, the Cmax was 19.2 ± 13.5 ng/mL and the t1/2 is reported as 1.4 ± 0.7 h. In addition, in data set [3] (setting [11]), the AUC0-24h came out at 128 ± 26.8 ng·h/mL, the apparent clearance CL/F was 3610 ± 566 mL/h, the Cmax was 40.2 ± 9.6 ng/mL and the Tmax is listed as 1.0 ± 0 h. The t1/2 in data set [3] (setting [11]) is on record as 1.5 ± 0.7 h.
